The text below walks through data of patent publication US20070191627A1, “Stilbene derivatives and their use in medicaments” (priority 2003, published 2007).

A value given as a limit tells only on which side of the number the result lay.

In one assay the target is T1, COX 2 (Homo sapiens, UniProt P35354).
T1 construct: purchased IBL Products Company, Hamburg, Germany
T1 sequence (P35354 18-604): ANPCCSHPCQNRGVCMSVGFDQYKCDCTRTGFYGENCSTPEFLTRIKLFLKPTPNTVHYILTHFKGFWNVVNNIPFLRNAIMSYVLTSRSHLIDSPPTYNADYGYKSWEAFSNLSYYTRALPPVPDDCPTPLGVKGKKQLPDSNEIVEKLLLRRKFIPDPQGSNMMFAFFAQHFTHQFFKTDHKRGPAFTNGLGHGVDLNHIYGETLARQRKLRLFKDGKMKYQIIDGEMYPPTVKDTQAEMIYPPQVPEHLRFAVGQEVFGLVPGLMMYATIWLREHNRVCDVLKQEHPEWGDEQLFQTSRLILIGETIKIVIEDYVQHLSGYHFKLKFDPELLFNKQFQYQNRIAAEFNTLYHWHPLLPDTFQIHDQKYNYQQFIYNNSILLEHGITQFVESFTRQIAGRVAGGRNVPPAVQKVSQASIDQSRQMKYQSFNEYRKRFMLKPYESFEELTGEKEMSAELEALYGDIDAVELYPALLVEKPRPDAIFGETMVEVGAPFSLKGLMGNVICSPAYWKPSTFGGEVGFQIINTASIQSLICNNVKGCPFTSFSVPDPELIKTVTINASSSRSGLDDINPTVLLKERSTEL
Description: COX (human) inhibitor screening assay, COX 2. Type of assay: biochemical.
Conditions: not given
With `Oc1cc(O)cc(C=Cc2ccc(O)c(O)c2)c1` [M10, 3,3′,4′,5-Tetrahydroxystilbene], the IC50 stood at 0.005 µM.

For a further assay, the system named is DU-145. Description: Clonogenic test series (7 d) in DU-145 prostate cancer cells. The assay is classed as cell-based. The following applies: Homo sapiens, DU-145, 168 h.
For the compound `COc1cc(C=Cc2cc(OC)cc(OC)c2)cc(OC)c1` [M1, 3,3′,5,5′-Tetramethoxystilbene], the IC50 was found to be 25 µM.

`COc1ccc(C=Cc2cc(OC)c(OC)c(OC)c2)cc1` [M4, 3,4,4′,5-Tetramethoxystilbene] registered an IC50 of 0.4 µM.

Compound `COc1cccc(C=Cc2cc(OC)cc(OC)c2)c1` [M5, 3,3′,5-Trimethoxystilbene] returned an IC50 of 6 µM.

In turn, `COc1cc(C=Cc2ccc(OC)c(OC)c2)cc(OC)c1` [M5A, 3,3′,4′,5-Tetramethoxystilbene] had an IC50 of 30 µM.

As to `Oc1cc(O)cc(C=Cc2ccc(O)c(O)c2)c1` [M10, 3,3′,4′,5-Tetrahydroxystilbene], the IC50 worked out at 58 µM.

For the compound `Oc1ccc(C=Cc2cc(O)cc(O)c2)cc1` [Resveratrol, 3,4′,5-Trihydroxystilbene, reference compound], the IC50 stood at 10 µM.

The subject of the next assay is HL-60 human promyelocyte leukemia cells. The assay is described as follows: Growth inhibition assay in HL-60 cells (72 h, cell count). The following applies: 50 or 100 μM, alone. Type of assay: cell-based. The protocol:
The human promyelocyte leukemia cell line HL-60 was purchased from the ATCC (American Type Culture Collection, Rockville, Md., USA). The cells were cultured in RPMI 1640 medium with 10% heat-inactivated fetal calf serum (FCS) (GIBCO, Grand Island Biological Co., Grand Island, N.Y., USA) and with 1% penicillin/streptomycin in a humidified atmosphere with 5% CO2.
The cell numbers were determined by means of a microcell counter CC-108 (Sysmex, Kobe, Japan). For the tests, cells in the logarithmic growth phase were used.
Logarithmically-growing HL-60 cells were prepared in a density of 0.1×10^6 cells/ml in tissue culture flasks and incubated with various concentrations of the stilbene derivatives to be examined. After 72 hours, the cells were counted by means of the microcell counter. The viability of the cells was determined by means of trypan blue staining. Numbers of viable cells were calculated as results.
After 72 hours, the cells were counted by means of the microcell counter. The viability of the cells was determined by means of trypan blue staining. Numbers of viable cells were calculated as results.
Take `O=C1O[C@H]([C@@H](O)CO)C(O)=C1O` [Vitamin C, reference compound]: the “Action on cell growth of HL-60, in words” value is given as “no action on the cell growth”.

The same assay, now with this note: Homo sapiens, HL-60, read-out: IC50 (50% inhibition of cell growth), HL-60; 2nd determination series, 72 hours of incubation.
As to `Oc1ccc(C=Cc2cc(O)cc(O)c2)cc1` [Resveratrol, 3,4′,5-Trihydroxystilbene, reference compound], the IC50 came to 12 µM.

The same assay, now with this note: Homo sapiens, HL-60; 1st determination series, 72 hours; read-out: IC50 (μM), inhibition of growth of HL-60 human promyelocyte leukemia cells.
In the case of `Oc1cc(O)cc(C=Cc2ccc(O)c(O)c2)c1` [M10, 3,3′,4′,5-Tetrahydroxystilbene], the IC50 was found to be 9 µM.

For `Oc1ccc(C=Cc2cc(O)cc(O)c2)cc1` [Resveratrol, 3,4′,5-Trihydroxystilbene, reference compound], the IC50 was found to be 12 µM.

The assay is the same for the next values; noted with them: Homo sapiens, HL-60; Table 3, 72 h; read-out: Growth inhibition (72 h) HL-60.
With `COc1cc(C=Cc2cc(OC)cc(OC)c2)cc(OC)c1` [M1, 3,3′,5,5′-Tetramethoxystilbene], the IC50 was over 100 µM.

As for `COc1ccc(C=Cc2cc(OC)c(OC)c(OC)c2)cc1` [M4, 3,4,4′,5-Tetramethoxystilbene], the IC50 came to 20 µM.

On to `COc1cccc(C=Cc2cc(OC)cc(OC)c2)c1` [M5, 3,3′,5-Trimethoxystilbene], for which the IC50 came out at 5 µM.

`COc1cc(C=Cc2ccc(OC)c(OC)c2)cc(OC)c1` [M5A, 3,3′,4′,5-Tetramethoxystilbene]: the IC50 stood at 25 µM.

In the case of `Oc1cc(O)cc(C=Cc2ccc(O)c(O)c2)c1` [M10, 3,3′,4′,5-Tetrahydroxystilbene], the IC50 was 9 µM.

Regarding `Oc1ccc(C=Cc2cc(O)cc(O)c2)cc1` [Resveratrol, 3,4′,5-Trihydroxystilbene, reference compound], the IC50 was 12 µM.

A further assay concerns PC-3. The assay is described as follows: Clonogenic test series (7 d) in PC-3 prostate cancer cells. The assay is classed as cell-based. The following applies: Homo sapiens, PC-3, 168 h.
For `COc1cc(C=Cc2cc(OC)cc(OC)c2)cc(OC)c1` [M1, 3,3′,5,5′-Tetramethoxystilbene], the IC50 turned out to be 35 µM.

On to `COc1ccc(C=Cc2cc(OC)c(OC)c(OC)c2)cc1` [M4, 3,4,4′,5-Tetramethoxystilbene], for which the IC50 came to 3 µM.

Compound `COc1cccc(C=Cc2cc(OC)cc(OC)c2)c1` [M5, 3,3′,5-Trimethoxystilbene] yielded an IC50 of 3 µM.

`COc1cc(C=Cc2ccc(OC)c(OC)c2)cc(OC)c1` [M5A, 3,3′,4′,5-Tetramethoxystilbene] had an IC50 of 35 µM.

The compound `Oc1cc(O)cc(C=Cc2ccc(O)c(O)c2)c1` [M10, 3,3′,4′,5-Tetrahydroxystilbene] returned an IC50 of 18 µM.

In the case of `Oc1ccc(C=Cc2cc(O)cc(O)c2)cc1` [Resveratrol, 3,4′,5-Trihydroxystilbene, reference compound], the IC50 turned out to be 16 µM.

A further assay deals with T2, COX 1 (Homo sapiens, UniProt P23219).
T2 construct: purchased IBL Products Company, Hamburg, Germany
T2 sequence (P23219 24-599): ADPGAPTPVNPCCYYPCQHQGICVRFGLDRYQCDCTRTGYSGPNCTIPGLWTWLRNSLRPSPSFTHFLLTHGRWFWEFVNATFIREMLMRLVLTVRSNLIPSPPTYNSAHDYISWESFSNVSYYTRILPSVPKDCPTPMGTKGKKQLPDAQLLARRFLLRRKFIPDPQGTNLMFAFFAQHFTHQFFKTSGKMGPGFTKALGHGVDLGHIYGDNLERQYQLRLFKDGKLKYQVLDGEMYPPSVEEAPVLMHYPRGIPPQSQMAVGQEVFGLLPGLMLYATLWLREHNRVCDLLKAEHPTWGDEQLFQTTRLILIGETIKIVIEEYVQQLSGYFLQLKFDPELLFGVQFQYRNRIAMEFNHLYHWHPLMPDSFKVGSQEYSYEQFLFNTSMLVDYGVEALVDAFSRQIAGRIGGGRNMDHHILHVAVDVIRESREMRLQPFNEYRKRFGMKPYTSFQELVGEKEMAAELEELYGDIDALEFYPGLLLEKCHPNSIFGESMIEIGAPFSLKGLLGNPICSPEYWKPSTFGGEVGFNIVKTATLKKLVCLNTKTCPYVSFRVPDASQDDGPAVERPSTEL
The assay is described as follows: COX (human) inhibitor screening assay, COX 1.
Conditions: not given
Type of assay: biochemical.
Consider `Oc1cc(O)cc(C=Cc2ccc(O)c(O)c2)c1` [M10, 3,3′,4′,5-Tetrahydroxystilbene], for which the IC50 amounted to 5 µM.

Another assay deals with LNCaP. Description: Clonogenic test series (7 d) in LNCaP prostate cancer cells. Type of assay: cell-based. The following applies: Homo sapiens, 168 h, LNCaP cells respond to 5-alpha-dihydrotestosterone.
Turning to `COc1cc(C=Cc2cc(OC)cc(OC)c2)cc(OC)c1` [M1, 3,3′,5,5′-Tetramethoxystilbene], the IC50 is 21 µM.

`COc1ccc(C=Cc2cc(OC)c(OC)c(OC)c2)cc1` [M4, 3,4,4′,5-Tetramethoxystilbene] returned an IC50 of 0.4 µM.

Take `COc1cccc(C=Cc2cc(OC)cc(OC)c2)c1` [M5, 3,3′,5-Trimethoxystilbene]: the IC50 was determined as 6.25 µM.

`COc1cc(C=Cc2ccc(OC)c(OC)c2)cc(OC)c1` [M5A, 3,3′,4′,5-Tetramethoxystilbene]: the IC50 worked out at 6.25 µM.

For the compound `Oc1cc(O)cc(C=Cc2ccc(O)c(O)c2)c1` [M10, 3,3′,4′,5-Tetrahydroxystilbene], the IC50 came out at 33 µM.

Compound `Oc1ccc(C=Cc2cc(O)cc(O)c2)cc1` [Resveratrol, 3,4′,5-Trihydroxystilbene, reference compound] came in with an IC50 of 5 µM.
